Activity calls are given as the source filed them. No cut-off for these calls is given here.
Tested on: Staphylococcus aureus
Experiment: Antibacterial activity against methicillin-resistant Staphylococcus aureus at 25 ug/mL
Assay type: functional, organism-based

Question: With `C/C=C/C=C/C=C(C)/C=C/C(O)=C1\C(=O)CNC1=O` as the compound, how does the inhibition read?
Answer: Its inhibition is “Active”.

— ChEMBL document CHEMBL1150646, “Ravenic acid, a new tetramic acid isolated from a cultured microfungus, Penicillium sp” (J Nat Prod, 2002)
